Reference: patent US5246929A, “Naphtho thiazine (or oxaline) derivatives and preparations thereof” (Tanabe Seiyaku Co., Ltd., priority 1990, dated 1993)
Structures can show the parent of a compound that is named as a salt.

Tests used:
Assay type in all cases: in vivo
[1] = tested on: cerebral anoxia induced by potassium cyanide; experiment: Activity for protecting cerebral anoxia induced by potassium cyanide (survival time); settings: 10 mg/kg orally, mice; potassium cyanide 2.4 mg/kg tail vein one hour later
mice = experiment: Acute oral toxicity in mice; settings: 500 mg/kg orally, 7 days
From the text: The compounds (I) of this invention can inhibit the calcium entrance into the cerebral synaptosome and show excellent central calcium antagonistic activity and/or excellent calcium antagonistic activity in cerebral blood vessel, and can be used for the treatment and prophylaxis of cerebral diseases due to cerebral blood flow disorder at acute and chronic periods, for example, subarachnoid hemorrhage, cerebral infarction, etc. The compounds (I) of this invention have also an activity for protecting cerebral neurocyte. For example, when 2-(4-chlorophenyl)-4-(diethylamino)acetyl-3,4-dihydro-2H-1,4-benzothiazinewas intraperitoneally administered to evanescent cerebral ischemic rats with ligating four vessels in a dose of 1.5 mg/kg twice a day for four days, it increased the number of normal pyramidal cells at hippocampul CA1 region in about 90% in comparison with the non-medicated group. Accordingly, the compounds (I) of this invention can effectively be used for the prophylaxis, treatment and amelioration of sequelae of cerebral neurocyte dyscrasia, for example, disturbances of consciousness (e.g. somnolenz, sopor, coma, stupor, clouding of consciousness, etc.), motor paralysis (e.g. parkinsonism, etc.), cerebral neuropathy (e.g. dysuria, etc.), speech and language disorders (e.g. articulation disorders, aphasia, semantic aphasia, etc.), sensitive disorders (e.g. pain, sysesthesia, heat sensibility disorder, etc.), psychological disorders (e.g. dementia, hallucination, delusion, delirium, poriomania, melancholia, neurosis, emotional incontinence, etc.), and the like, and further the prophylaxis of palindromia and also the prophylaxis of exacerbation and progression of the symptoms. […] In addition, the compounds (I) of this invention have low toxicity and has high safety.

[2] = tested on: normal pyramidal cells at hippocampul CA1 region; experiment: Number of normal pyramidal cells in evanescent cerebral ischemic rats with ligating four vessels; settings: 1.5 mg/kg intraperitoneally twice a day for four days, four vessels ligated
From the text: The compounds (I) of this invention can inhibit the calcium entrance into the cerebral synaptosome and show excellent central calcium antagonistic activity and/or excellent calcium antagonistic activity in cerebral blood vessel, and can be used for the treatment and prophylaxis of cerebral diseases due to cerebral blood flow disorder at acute and chronic periods, for example, subarachnoid hemorrhage, cerebral infarction, etc. The compounds (I) of this invention have also an activity for protecting cerebral neurocyte. For example, when 2-(4-chlorophenyl)-4-(diethylamino)acetyl-3,4-dihydro-2H-1,4-benzothiazinewas intraperitoneally administered to evanescent cerebral ischemic rats with ligating four vessels in a dose of 1.5 mg/kg twice a day for four days, it increased the number of normal pyramidal cells at hippocampul CA1 region in about 90% in comparison with the non-medicated group. […]

4-(dimethylamino)acetyl-2-(4-fluorophenyl)-3,4-dihydro-2H-1,4-benzothiazine oxalate [Example 1]
Prolonging rate of survival time [1]: 62%

CCN(CC)CC(=O)N1CC(c2ccc(Cl)cc2)Sc2ccc3ccccc3c21 (centres unmarked) [3-(4-chlorophenyl)-1-(diethylamino)acetyl-2,3-dihydro-1H-naphtho[2,1-b][1,4]thiazine oxalate]
mortality of mice (mice): no mouse died even after 7 days

CCN(CC)CC(=O)N1CC(c2ccc(Cl)cc2)Sc2ccccc21 (centres unmarked) [2-(4-chlorophenyl)-4-(diethylamino)acetyl-3,4-dihydro-2H-1,4-benzothiazineoxalate]
mortality of mice (mice): no mouse died even after 7 days

CN(C)CCCN1C(=O)C(c2cccc(C(F)(F)F)c2)Sc2ccc3ccccc3c21.O=C(O)C(=O)O (centres unmarked) [1-[3-(dimethylamino)propyl]-3-(3-trifluoromethylphenyl)-1H-naphtho[2,1-b][1,4]thiazin-2(3H)-one oxalate]
mortality of mice (mice): no mouse died even after 7 days

CCN(CC)CC(=O)N1CC(c2ccc(Cl)cc2)Sc2ccccc21 (centres unmarked) [2-(4-chlorophenyl)-4-(diethylamino)acetyl-3,4-dihydro-2H-1,4-benzothiazine]
increase of the number of normal pyramidal cells at hippocampul CA1 region in comparison with the non-medicated group [2]: about 90%
